Tests used:
[1] = system: HT-29 (human colorectal adenocarcinoma) cells; assay: MTT assay, HT-29 cells; type: cell-based; conditions: MTT assay, 48 h incubation; read-out: IC50 (mean ± SD), HT-29, MTT
Experimental: (§1) The cell proliferations of ligand precursors and organotin(IV) compounds were evaluated with the aid of MTT (3-(4,5-dimethylthiazol-2-yl)-2,5-12 diphenyltetrazolium bromide) and CV (crystal violet) assays toward prostate (PC-3), colon (HT-29), breast (MCF-7) and hepatic (HepG2) cancer cell lines, and normal mouse embryonic fibroblast cells (NIH 3T3). The cells were cultivated in T75 flasks containing 10 mL of complete medium and kept at 37 °C and 5% CO2 […]. The nutrient medium was RPMI-1640 (PAA Laboratories) supplemented with 10% foetal bovine serum, L-glutamine, and penicillin/streptomycin (Sigma). Afterward, 5.000 cells of PC-3 and MCF-7 and 1.500 cells of HT-29 and HepG2 were transferred into 96 well-plates and used for MTT and CV assays. For microscopy investigations as well as FACS measurements (except for ROS/RNS measurements), MCF-7 cells were seeded overnight in 6-well plates (150,000 cells/well) in […] of complete medium. […] In all assays, control cells were untreated MCF-7 cells incubated for the same time period as treated cells and treated with appropriate reagents in various assays. BD FACS Aria III was used for flow cytometry experiments and results were analysed using BD FACSDiva software (BD Biosciences, Heidelberg, Germany) and Cyflogic (V 1.2.1, CyFlo Ltd., Turku, Finland). A fluorescence microscope Invitrogen EVOS FL 2 Auto 2 Cell Imaging System was used for visualization of the cells as well as for detection of fluorescence in the cells.
(§2) Ligands HL1‒HL3, organotin(IV) compounds, and cisplatin were investigated in 9 different concentrations (100, 50, 10, 5, 1, 0.5, 0.1, 0.05, 0.01 μM). Using the complete medium, each stock solution of the test compounds (20 mM in DMSO) was diluted to obtain the working solution. The final concentration of DMSO never overstepped 0.5%, which is non-toxic to the cells. Three technical replicates were performed for each concentration. The treated cells were incubated for 48 h at 37 °C under 5% CO2 and the viability of the cells was determined using MTT and CV assays according to the literature procedure. The IC50 values, defined as 50% inhibitory concentration, were calculated with a four-parameter logistic function and presented in a mean. All experiments were performed in triplicate.

[2] = system: MCF-7 (breast cancer) cells; assay: MTT assay, MCF-7 cells; type: cell-based, human; conditions: for IC50: MTT assay, 48 h incubation, read-out: IC50 (mean ± SD), MCF-7, MTT
Experimental: as §1, §2

[3] = system: HepG2 (hepatocellular cancer) cells; assay: MTT assay, HepG2 cells; type: cell-based, human; conditions: MTT assay, 48 h incubation; read-out: IC50 (mean ± SD), HepG2, MTT
Experimental: as §1, §2

[4] = system: NIH3T3 (normal mouse embryonic fibroblast) cells; assay: MTT assay, NIH3T3 cells; type: cell-based; conditions: MTT assay, 48 h incubation, normal cells; read-out: IC50 (mean ± SD), NIH3T3, MTT
Experimental: as §1, §2

[5] = system: PC-3 (human prostate cancer) cells; assay: CV (crystal violet) assay, PC-3 cells; type: cell-based; conditions: CV assay, 48 h incubation; read-out: IC50 (mean ± SD), PC-3, CV
Experimental: as §1, §2

[6] = system: HT-29 (human colorectal adenocarcinoma) cells; assay: CV (crystal violet) assay, HT-29 cells; type: cell-based; conditions: CV assay, 48 h incubation; read-out: IC50 (mean ± SD), HT-29, CV
Experimental: as §1, §2

[7] = system: MCF-7 (breast cancer) cells; assay: CV (crystal violet) assay, MCF-7 cells; type: cell-based, human; conditions: for IC50: CV assay, 48 h incubation, read-out: IC50 (mean ± SD), MCF-7, CV
Experimental: as §1, §2

[8] = system: NIH3T3 (normal mouse embryonic fibroblast) cells; assay: CV (crystal violet) assay, NIH3T3 cells; type: cell-based; conditions: CV assay, 48 h incubation, normal cells; read-out: IC50 (mean ± SD), NIH3T3, CV
Experimental: as §1, §2

MCF-7 cells [9] = assay: Tin and platinum uptake by ICP-MS; type: cell-based, human; conditions: 24 h, at IC50 (CV assay): cisplatin 15.83 µM, Ph3SnL1 0.218 µM
Experimental: The cellular uptake features of metal-based cytotoxic drugs strongly impact the underlying anticancer performance. Intracellular tin and platinum uptake in MCF-7 cells has been investigated with the aid of inductively coupled plasma mass spectrometry (ICP-MS) analysis. The treatment of cells with Ph3SnL1 and cisplatin for 24 h in concentrations corresponding to their IC50 values, as obtained by the CV assay, was performed.
The tin and platinum uptake analysis was performed on MCF-7 cells with the aid of inductively coupled plasma mass spectrometry (ICP-MS). The cells were seeded in T25 flasks and allowed to grow. After 24 h, the exponentially growing cells were treated with 10 mL of Ph3SnL1 and cisplatin in concentrations corresponding to their IC50 values for 24 h, and thereafter trypsinised and collected by centrifugation at 1200 rpm for 8 min. Using 5 mL of ice-cold PBS the cells were washed and the metal uptake concentration in prepared samples was determined according to the previously described procedure. A Thermo Scientific iCAP Qc ICP-MS (Thermo Scientific, Bremen, Germany) instrument using the supplied autotune protocols and operational software Qtegra was employed for metal uptake determination. The measurements were performed on isotopes ^119Sn, ^120Sn, ^195Pt, and ^198Pt and the concentrations of metals were expressed as ppb (µg/L).

MCF-7 cells [10] = assay: Autophagy analysis (AO, flow cytometry); type: cell-based, human; conditions: 48 h, IC50 concentration
Experimental: Thereafter, the medium was collected into 15 mL Falcon tubes, while the cells were washed with 1 mL of PBS. The cells were detached using […] of trypsin. The deactivation of trypsination was performed with the formerly collected medium, while for the untreated cells, 1 mL of complete medium was added, and the cells were collected by the pipette tip harvesting technique from each well into a new Falcon tube, which then was centrifuged for 3 min at 1000 rpm. The supernatant was discarded, and the cells were washed with 1 mL of PBS, centrifuged for 3 min at 1000 rpm and then the supernatant was discarded. Afterwards, 500 μL of the acridine orange (AO) working solution was used to stain the cells which then were incubated for 30 min at 37 °C under 5% CO2. The deactivation of the staining process was performed by adding 1 mL of PBS, and after centrifugation for 3 min at 1000 rpm, the supernatant was discarded. The cells were resuspended in 1 mL of PBS and analysed by flow cytometry.

Structure (SMILES)	IC50 [1] [µM]	IC50 [2] [µM]	fold higher activity compared to cisplatin against MCF-7 ([2]; Table 1 IC50 values, 48 h)	IC50 [3] [µM]	IC50 [4] [µM]	IC50 [5] [µM]	IC50 [6] [µM]	times more powerful antiproliferative activity than cisplatin in MCF-7 cells ([7]; CV assay IC50 values)	IC50 [7] [µM]	IC50 [8] [µM]	intracellular metal (tin / platinum) uptake (MCF-7 cells [9])	autophagy (AO) (MCF-7 cells [10])
O=C(CCc1nc(-c2ccccc2)c(-c2ccccc2)o1)[O][Sn]([c]1ccccc1)([c]1ccccc1)[c]1ccccc1 [Ph3SnL1, (3-(4,5-Diphenyloxazol-2-yl)propanoato)triphenyltin(IV)]	0.237 ± 0.012	0.132 ± 0.021	up to 120 fold	0.146 ± 0.028	2.17 ± 0.53	0.556 ± 0.038	0.465 ± 0.046	up to 70 times	0.218 ± 0.025	2.66 ± 0.52	two-fold lower concentration of tin in MCF-7 cells in comparison to platinum	autophagy process is not triggered
N.N.[Cl][Pt][Cl] [cisplatin, reference compound]	14.2 ± 0.73	15.2 ± 1.04	–	3.47 ± 0.46	8.81 ± 0.51	13 ± 0.45	16 ± 0.95	–	15.8 ± 0.55	14.2 ± 1.95	approximately twofold higher platinum concentration in MCF-7 cells compared to tin	induces an autophagic response
